{"source": "paper PMC9367601", "about": "(Cancers, 2022)", "molecular_target": "T1, Epidermal Growth Factor Receptor (EGFR), extracellular domain (EGFR-ECD) (Homo sapiens, UniProt P00533)", "T1 construct": "full-length EGFR in DiscoverX PathHunter enzyme-complementation cells, EGF-stimulated", "T1 sequence (P00533 25-1210)": "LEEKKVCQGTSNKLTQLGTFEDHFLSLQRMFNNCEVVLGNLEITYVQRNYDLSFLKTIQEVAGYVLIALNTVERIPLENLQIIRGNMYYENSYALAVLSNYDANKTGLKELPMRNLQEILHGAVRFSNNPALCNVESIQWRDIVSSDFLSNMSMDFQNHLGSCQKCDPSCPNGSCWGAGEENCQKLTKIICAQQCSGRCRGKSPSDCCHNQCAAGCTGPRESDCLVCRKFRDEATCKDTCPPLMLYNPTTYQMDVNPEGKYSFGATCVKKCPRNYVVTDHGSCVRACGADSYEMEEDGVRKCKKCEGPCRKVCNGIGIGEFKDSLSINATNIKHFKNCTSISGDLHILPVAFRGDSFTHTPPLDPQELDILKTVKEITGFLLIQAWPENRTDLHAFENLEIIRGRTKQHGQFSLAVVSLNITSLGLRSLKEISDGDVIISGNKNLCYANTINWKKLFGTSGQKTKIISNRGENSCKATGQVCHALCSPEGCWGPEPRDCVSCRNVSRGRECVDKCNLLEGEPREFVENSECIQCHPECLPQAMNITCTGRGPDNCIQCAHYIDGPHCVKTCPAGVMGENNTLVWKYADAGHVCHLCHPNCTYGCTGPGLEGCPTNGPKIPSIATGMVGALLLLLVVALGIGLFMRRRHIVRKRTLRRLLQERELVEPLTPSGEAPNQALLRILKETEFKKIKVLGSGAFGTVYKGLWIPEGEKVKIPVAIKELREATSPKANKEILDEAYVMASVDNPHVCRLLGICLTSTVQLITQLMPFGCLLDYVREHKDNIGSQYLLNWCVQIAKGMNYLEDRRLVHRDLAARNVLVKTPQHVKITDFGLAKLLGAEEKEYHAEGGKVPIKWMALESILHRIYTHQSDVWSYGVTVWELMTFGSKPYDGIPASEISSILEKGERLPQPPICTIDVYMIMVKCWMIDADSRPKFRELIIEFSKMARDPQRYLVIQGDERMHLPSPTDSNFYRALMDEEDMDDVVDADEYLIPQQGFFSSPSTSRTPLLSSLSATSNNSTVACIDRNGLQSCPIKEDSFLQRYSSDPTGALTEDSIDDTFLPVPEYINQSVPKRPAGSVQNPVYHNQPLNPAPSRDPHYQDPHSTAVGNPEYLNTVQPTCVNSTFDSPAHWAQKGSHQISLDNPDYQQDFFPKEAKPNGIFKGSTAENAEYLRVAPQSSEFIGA", "assay": "SPR competition: dose-dependent decrease of EGF binding to immobilized EGFR-ECD (no SPR value printed); the IC50 is from the PathHunter cell EGFR dimerization assay", "assay_type": "cell-based", "data": [{"molecule": "O=C1Nc2ccc([N+](=O)[O-])cc2C1=Nc1cccc(C(F)(F)F)c1", "note": "[DSF-102]", "values": [{"measurement": "IC50", "value": "13.2 ± 2.1", "unit": "µM"}]}]}
